Values of other authors as cited in patent US11338162B2 (priority 2013, dated 2022).

Assays:
rat = conditions: in vivo
rabbit = conditions: in vivo, topical or ocular
Lepomis macrochirus = conditions: in vivo
[1] = system: Leuciscus idus (Golden orfe); conditions: in vivo
[2] = system: Daphnia magna (Water flea); conditions: in vivo
[3] = system: Desmodesmus subspicatus (green algae); conditions: 24 h
Pseudomonas putida = conditions: 16 h

## CCCCOCCOCCO [DGME, diethylene glycol monobutyl ether]
rat
  LD50 Oral - rat: 5,660 mg/kg
rabbit
  LD50 Dermal - rabbit: 2,700 mg/kg
  dermal LD50 in rabbits: 2700 mg/kg
Lepomis macrochirus
  Toxicity to fish LC50: 1,300 mg/l
[1]
  Toxicity to fish LC50: >1,000 mg/l
[2]
  Toxicity to daphnia and other aquatic invertebrates LC50 - Daphnia magna (Water flea): 1,950 mg/l
[3]
  Toxicity to algae IC50 - Desmodesmus subspicatus (green algae): >100 mg/l-24 h
Pseudomonas putida
  Toxicity to bacteria LC50 - Pseudomonas putida: 1,170 mg/l-16 h
